Assay results published in patent US8933230B2, “Phosphorus-containing group-substituted quinoline, its preparation process, medical composition containing the compounds and application” (priority 2011, dated 2015).

Key:
Assay in all cases: KinomeScan kinase panel
Assay type in all cases: binding
HCK = target: T1, HCK (Homo sapiens, UniProt P08631)
T1 construct: purchased DiscoveRx Corporation (KinomeScan)
Method in brief: (§1)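 Tested at 1000 nM in the KinomeScan 442-kinase competition binding panel, with inhibition of each kinase or mutant reported at that single concentration.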

LIMK2 = target: T2, LIMK2 (Homo sapiens, UniProt P53671)
T2 construct: purchased DiscoveRx Corporation (KinomeScan)
Method in brief: as §1

LOK = target: T3, LOK (Homo sapiens, UniProt O94804)
T3 construct: purchased DiscoveRx Corporation (KinomeScan)
Method in brief: as §1

HIPK4 = target: T4, HIPK4 (Homo sapiens, UniProt Q8NE63)
T4 construct: purchased DiscoveRx Corporation (KinomeScan)
T4 sequence (Q8NE63 whole entry): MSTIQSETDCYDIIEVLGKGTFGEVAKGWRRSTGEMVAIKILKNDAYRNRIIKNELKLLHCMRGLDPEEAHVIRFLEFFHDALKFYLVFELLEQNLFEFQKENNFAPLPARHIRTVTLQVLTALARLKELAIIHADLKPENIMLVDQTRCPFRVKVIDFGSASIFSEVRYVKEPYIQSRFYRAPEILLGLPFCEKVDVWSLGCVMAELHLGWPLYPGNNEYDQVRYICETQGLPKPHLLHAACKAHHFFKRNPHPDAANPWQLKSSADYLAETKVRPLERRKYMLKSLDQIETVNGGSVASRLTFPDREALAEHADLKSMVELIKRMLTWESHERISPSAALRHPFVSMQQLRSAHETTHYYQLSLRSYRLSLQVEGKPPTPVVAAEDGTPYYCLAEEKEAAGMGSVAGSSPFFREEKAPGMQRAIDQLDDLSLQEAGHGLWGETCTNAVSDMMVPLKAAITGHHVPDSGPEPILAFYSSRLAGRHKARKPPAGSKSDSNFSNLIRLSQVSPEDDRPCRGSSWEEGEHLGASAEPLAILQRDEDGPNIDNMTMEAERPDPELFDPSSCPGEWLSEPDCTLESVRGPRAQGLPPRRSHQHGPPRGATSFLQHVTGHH
Method in brief: as §1

PRKCE = target: T5, PRKCE (Homo sapiens, UniProt Q02156)
T5 construct: purchased DiscoveRx Corporation (KinomeScan)
Method in brief: as §1

GRK7 = target: T6, GRK7 (Homo sapiens, UniProt Q8WTQ7)
T6 construct: purchased DiscoveRx Corporation (KinomeScan)
Method in brief: as §1

YANK2 = target: T7, YANK2 (Homo sapiens, UniProt Q9NY57)
T7 construct: purchased DiscoveRx Corporation (KinomeScan service)
T7 sequence (Q9NY57 whole entry): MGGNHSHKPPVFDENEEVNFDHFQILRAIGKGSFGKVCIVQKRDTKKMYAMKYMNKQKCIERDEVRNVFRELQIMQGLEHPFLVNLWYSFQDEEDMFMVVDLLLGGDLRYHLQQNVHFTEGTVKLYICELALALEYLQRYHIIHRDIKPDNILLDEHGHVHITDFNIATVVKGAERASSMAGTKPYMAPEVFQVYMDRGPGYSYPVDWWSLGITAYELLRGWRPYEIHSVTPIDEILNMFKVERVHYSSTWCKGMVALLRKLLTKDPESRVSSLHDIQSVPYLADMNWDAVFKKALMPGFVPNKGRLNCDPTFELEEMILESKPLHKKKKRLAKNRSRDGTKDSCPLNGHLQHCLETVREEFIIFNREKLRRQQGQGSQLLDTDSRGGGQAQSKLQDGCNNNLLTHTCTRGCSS
Method in brief: as §1

PKA7 = target: T8, PKA7 (Homo sapiens, UniProt Q9P286)
T8 construct: purchased DiscoveRx Corporation (KinomeScan panel)
T8 sequence (Q9P286 whole entry): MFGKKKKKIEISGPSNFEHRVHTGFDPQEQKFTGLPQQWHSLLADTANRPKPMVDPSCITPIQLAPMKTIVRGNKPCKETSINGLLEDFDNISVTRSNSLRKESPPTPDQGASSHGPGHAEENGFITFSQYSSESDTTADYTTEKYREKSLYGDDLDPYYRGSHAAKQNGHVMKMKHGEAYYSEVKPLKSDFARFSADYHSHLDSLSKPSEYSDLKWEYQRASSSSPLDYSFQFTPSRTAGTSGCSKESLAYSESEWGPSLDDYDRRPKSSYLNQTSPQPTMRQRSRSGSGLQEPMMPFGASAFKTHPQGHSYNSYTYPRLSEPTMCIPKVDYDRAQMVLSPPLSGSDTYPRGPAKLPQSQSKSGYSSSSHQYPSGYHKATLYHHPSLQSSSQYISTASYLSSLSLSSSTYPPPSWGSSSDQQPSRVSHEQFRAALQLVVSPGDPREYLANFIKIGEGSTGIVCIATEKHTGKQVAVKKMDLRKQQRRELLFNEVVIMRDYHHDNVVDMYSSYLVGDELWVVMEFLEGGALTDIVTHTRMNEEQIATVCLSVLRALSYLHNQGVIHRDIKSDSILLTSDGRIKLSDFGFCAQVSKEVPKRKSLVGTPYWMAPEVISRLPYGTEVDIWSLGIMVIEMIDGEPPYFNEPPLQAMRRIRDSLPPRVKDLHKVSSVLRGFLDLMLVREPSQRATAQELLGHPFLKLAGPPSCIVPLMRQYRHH
Method in brief: as §1

DDR2 = target: T9, DDR2 (Homo sapiens, UniProt Q16832)
T9 construct: purchased DiscoveRx Corporation (KinomeScan)
Method in brief: as §1

MARK4 = target: T10, MARK4 (Homo sapiens, UniProt Q96L34)
T10 construct: purchased DiscoveRx Corporation (KinomeScan)
Method in brief: as §1

BRK = target: T11, BRK (Homo sapiens, UniProt Q13882)
T11 construct: purchased DiscoveRx Corporation (KinomeScan)
T11 sequence (Q13882 whole entry): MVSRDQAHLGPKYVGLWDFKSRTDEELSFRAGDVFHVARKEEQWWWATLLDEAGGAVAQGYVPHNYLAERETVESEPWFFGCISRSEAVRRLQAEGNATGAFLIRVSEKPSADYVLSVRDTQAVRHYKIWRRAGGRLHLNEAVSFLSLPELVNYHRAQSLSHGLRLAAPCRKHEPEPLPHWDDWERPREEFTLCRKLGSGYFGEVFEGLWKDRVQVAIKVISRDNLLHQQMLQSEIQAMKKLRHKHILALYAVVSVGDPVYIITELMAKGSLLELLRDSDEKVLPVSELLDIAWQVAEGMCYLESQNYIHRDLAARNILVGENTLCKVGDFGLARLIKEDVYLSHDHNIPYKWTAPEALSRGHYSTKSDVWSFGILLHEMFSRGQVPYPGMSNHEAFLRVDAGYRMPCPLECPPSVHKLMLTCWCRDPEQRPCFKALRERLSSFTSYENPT
Method in brief: as §1

TTK = target: T12, TTK (Homo sapiens, UniProt P33981)
T12 construct: purchased DiscoveRx Corporation (KinomeScan)
Method in brief: as §1

P38-delta = target: T13, P38-delta (Homo sapiens, UniProt O15264)
T13 construct: purchased DiscoveRx Corporation (KinomeScan panel)
Method in brief: as §1

INSR = target: T14, INSR (Homo sapiens, UniProt P06213)
T14 construct: purchased DiscoveRx Corporation (KinomeScan)
Method in brief: as §1

WEE1 = target: T15, WEE1 (Homo sapiens, UniProt P30291)
T15 construct: purchased DiscoveRx Corporation (KinomeScan service)
T15 sequence (P30291 whole entry): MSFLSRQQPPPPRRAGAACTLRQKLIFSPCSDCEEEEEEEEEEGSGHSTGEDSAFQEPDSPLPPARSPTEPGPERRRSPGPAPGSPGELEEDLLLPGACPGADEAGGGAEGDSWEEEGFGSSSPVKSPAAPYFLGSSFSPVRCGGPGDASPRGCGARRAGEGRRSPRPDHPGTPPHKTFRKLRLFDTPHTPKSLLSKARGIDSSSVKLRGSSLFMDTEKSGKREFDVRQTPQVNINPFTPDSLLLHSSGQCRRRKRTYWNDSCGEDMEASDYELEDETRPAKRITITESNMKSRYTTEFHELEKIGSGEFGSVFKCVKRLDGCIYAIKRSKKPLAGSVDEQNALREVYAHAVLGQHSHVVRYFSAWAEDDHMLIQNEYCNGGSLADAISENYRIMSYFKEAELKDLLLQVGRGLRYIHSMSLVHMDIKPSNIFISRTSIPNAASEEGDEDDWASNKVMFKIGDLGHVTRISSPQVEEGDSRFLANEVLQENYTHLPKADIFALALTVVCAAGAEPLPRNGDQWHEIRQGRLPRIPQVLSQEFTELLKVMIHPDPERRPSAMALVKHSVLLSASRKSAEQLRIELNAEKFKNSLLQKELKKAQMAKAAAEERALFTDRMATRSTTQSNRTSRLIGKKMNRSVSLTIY
Method in brief: as §1

TBK1 = target: T16, TBK1 (Homo sapiens, UniProt Q9UHD2)
T16 construct: purchased DiscoveRx Corporation (KinomeScan)
Method in brief: as §1

QSK = target: T17, QSK (Homo sapiens, UniProt Q9Y2K2)
T17 construct: purchased DiscoveRx Corporation
T17 sequence (Q9Y2K2 whole entry): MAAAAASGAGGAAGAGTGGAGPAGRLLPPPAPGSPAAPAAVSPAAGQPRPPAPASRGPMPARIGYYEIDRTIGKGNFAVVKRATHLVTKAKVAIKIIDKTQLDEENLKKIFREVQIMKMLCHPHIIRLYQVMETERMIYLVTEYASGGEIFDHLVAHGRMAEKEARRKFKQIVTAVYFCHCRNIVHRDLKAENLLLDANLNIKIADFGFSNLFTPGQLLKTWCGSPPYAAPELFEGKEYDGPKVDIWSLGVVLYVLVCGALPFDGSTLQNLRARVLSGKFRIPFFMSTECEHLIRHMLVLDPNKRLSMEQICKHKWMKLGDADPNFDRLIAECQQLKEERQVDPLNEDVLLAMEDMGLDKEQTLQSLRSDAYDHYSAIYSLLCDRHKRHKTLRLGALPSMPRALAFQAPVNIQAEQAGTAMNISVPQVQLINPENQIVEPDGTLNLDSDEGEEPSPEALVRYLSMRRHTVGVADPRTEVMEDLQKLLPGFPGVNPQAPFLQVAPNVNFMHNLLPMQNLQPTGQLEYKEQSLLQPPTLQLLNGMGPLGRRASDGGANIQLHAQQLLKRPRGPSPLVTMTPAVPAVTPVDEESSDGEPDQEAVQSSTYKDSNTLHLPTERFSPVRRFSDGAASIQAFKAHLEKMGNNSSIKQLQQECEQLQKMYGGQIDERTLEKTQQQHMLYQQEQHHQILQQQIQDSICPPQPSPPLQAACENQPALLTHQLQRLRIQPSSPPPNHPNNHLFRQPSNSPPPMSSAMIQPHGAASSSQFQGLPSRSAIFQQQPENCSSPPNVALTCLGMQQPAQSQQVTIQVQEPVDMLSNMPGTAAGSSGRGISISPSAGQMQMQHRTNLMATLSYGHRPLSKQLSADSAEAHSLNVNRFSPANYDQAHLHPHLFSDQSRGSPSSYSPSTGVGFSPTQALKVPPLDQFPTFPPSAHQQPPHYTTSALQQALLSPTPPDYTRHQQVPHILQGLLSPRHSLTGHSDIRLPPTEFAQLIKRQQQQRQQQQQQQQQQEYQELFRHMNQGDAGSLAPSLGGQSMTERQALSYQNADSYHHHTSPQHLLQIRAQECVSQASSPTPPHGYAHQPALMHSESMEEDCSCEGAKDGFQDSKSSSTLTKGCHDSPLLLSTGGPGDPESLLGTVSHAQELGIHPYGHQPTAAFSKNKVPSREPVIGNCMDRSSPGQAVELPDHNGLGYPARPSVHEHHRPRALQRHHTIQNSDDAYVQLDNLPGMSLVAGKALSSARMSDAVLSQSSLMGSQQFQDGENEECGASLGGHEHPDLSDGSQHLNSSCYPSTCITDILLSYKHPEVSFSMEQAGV
Method in brief: as §1

LATS1 = target: T18, LATS1 (Homo sapiens, UniProt O95835)
T18 construct: purchased DiscoveRx Corporation (KinomeScan)
Method in brief: as §1

MLK3 = target: T19, MLK3 (Homo sapiens, UniProt Q16584)
T19 construct: purchased DiscoveRx Corporation (KinomeScan)
Method in brief: as §1

PIK3CA (H1047L) = target: T20, PIK3CA (H1047L) (Homo sapiens, UniProt P42336, H1047L)
T20 construct: purchased DiscoveRx Corporation (KinomeScan)
Method in brief: as §1

TRKB = target: T21, TRKB (Homo sapiens, UniProt Q16620)
T21 construct: purchased DiscoveRx Corporation (KinomeScan)
Method in brief: as §1

SRPK3 = target: T22, SRPK3 (Homo sapiens, UniProt Q9UPE1)
T22 construct: purchased DiscoveRx Corporation (KinomeScan)
Method in brief: as §1

PLK4 = target: T23, PLK4 (Homo sapiens, UniProt O00444)
T23 construct: purchased DiscoveRx Corporation (KinomeScan)
Method in brief: as §1

PIM1 = target: T24, PIM1 (Homo sapiens, UniProt P11309)
T24 construct: purchased DiscoveRx Corporation (KinomeScan)
Method in brief: as §1

SRC = target: T25, SRC (Homo sapiens, UniProt P12931)
T25 construct: purchased DiscoveRx Corporation (KinomeScan)
Method in brief: as §1

ACVR1B = target: T26, ACVR1B (Homo sapiens, UniProt P36896)
T26 construct: purchased DiscoveRx Corporation (KinomeScan)
Method in brief: as §1

BRSK1 = target: T27, BRSK1 (Homo sapiens, UniProt Q8TDC3)
T27 construct: purchased DiscoveRx Corporation (KinomeScan)
Method in brief: as §1

EGFR(L858R,T790M) = target: T28, EGFR(L858R,T790M) (Homo sapiens, UniProt P00533, L858R/T790M)
T28 construct: purchased DiscoveRx Corporation (KinomeScan)
Method in brief: as §1

CIT = target: T29, CIT (Homo sapiens, UniProt O14578)
T29 construct: purchased DiscoveRx Corporation (KinomeScan)
Method in brief: as §1

TGFBR1 = target: T30, TGFBR1 (Homo sapiens, UniProt P36897)
T30 construct: purchased DiscoveRx Corporation (KinomeScan)
Method in brief: as §1

CAMK2G = target: T31, CAMK2G (Homo sapiens, UniProt Q13555)
T31 construct: purchased DiscoveRx Corporation (KinomeScan)
T31 sequence (Q13555 whole entry): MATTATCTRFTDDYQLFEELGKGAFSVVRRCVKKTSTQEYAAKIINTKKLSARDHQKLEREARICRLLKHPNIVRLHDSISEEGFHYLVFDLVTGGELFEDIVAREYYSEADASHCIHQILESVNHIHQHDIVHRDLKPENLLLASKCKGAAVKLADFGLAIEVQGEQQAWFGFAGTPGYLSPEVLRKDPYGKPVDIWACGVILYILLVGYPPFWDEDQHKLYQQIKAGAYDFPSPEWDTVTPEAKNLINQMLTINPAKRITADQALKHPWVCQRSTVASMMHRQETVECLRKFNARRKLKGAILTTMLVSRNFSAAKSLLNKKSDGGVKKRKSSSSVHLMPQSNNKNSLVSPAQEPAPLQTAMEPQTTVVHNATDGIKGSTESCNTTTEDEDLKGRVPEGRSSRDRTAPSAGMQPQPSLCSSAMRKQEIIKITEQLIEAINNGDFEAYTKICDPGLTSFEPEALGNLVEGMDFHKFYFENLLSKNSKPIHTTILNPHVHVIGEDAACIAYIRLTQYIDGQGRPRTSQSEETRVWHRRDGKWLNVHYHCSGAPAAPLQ
Method in brief: as §1

TRKC = target: T32, TRKC (Homo sapiens, UniProt Q16288)
T32 construct: purchased DiscoveRx Corporation (KinomeScan)
Method in brief: as §1

AKT2 = target: T33, AKT2 (Homo sapiens, UniProt P31751)
T33 construct: purchased DiscoveRx Corporation (KinomeScan)
Method in brief: as §1

CHEK1 = target: T34, CHEK1 (Homo sapiens, UniProt O14757)
T34 construct: purchased DiscoveRx Corporation (KinomeScan)
Method in brief: as §1

KIT(L576P) = target: T35, KIT(L576P) (Homo sapiens, UniProt P10721, L576P)
T35 construct: purchased DiscoveRx Corporation (KinomeScan)
Method in brief: as §1

STK16 = target: T36, STK16 (Homo sapiens, UniProt O75716)
T36 construct: purchased DiscoveRx Corporation (KinomeScan)
T36 sequence (O75716 whole entry): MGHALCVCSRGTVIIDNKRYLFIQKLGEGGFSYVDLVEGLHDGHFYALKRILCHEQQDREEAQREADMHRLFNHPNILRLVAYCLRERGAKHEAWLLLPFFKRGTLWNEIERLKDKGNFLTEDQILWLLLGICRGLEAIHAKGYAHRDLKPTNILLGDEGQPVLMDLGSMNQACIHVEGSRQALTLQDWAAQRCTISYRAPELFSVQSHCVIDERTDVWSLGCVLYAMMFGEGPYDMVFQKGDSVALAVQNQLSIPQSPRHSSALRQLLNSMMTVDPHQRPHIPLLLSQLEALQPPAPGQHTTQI
Method in brief: as §1

## CCOP(=O)(CN1CCC(COc2cc3nccc(Oc4ccc(NC(=O)C5(C(=O)Nc6ccc(F)cc6)CC5)cc4F)c3cc2OC)CC1)OCC [Example 10, N1-[4-[[7-[[1-(diethoxyphosphorylmethyl)-4-piperidinyl]methoxyl]-6-methoxyl-4-quinolyl]oxyl]-3-fluorophenyl]-N1′-(4-fluorophenyl)cyclopropane-1,1-dicarboxamide]
HCK
  % Ctrl@1000 nM: 0.35 % Ctrl
LIMK2
  % Ctrl@1000 nM: 100 % Ctrl
LOK
  % Ctrl@1000 nM: 0 % Ctrl
HIPK4
  % Ctrl@1000 nM: 0.15 % Ctrl
PRKCE
  % Ctrl@1000 nM: 100 % Ctrl
GRK7
  % Ctrl@1000 nM: 100 % Ctrl
YANK2
  % Ctrl@1000 nM: 100 % Ctrl
PKA7
  % Ctrl@1000 nM: 100 % Ctrl
DDR2
  % Ctrl@1000 nM: 7.8 % Ctrl
MARK4
  % Ctrl@1000 nM: 100 % Ctrl
BRK
  % Ctrl@1000 nM: 3.0 % Ctrl
TTK
  % Ctrl@1000 nM: 84 % Ctrl
P38-delta
  % Ctrl@1000 nM: 53 % Ctrl
INSR
  % Ctrl@1000 nM: 54 % Ctrl
WEE1
  % Ctrl@1000 nM: 100 % Ctrl
TBK1
  % Ctrl@1000 nM: 79 % Ctrl
QSK
  % Ctrl@1000 nM: 100 % Ctrl
LATS1
  % Ctrl@1000 nM: 100 % Ctrl
MLK3
  % Ctrl@1000 nM: 63 % Ctrl
PIK3CA (H1047L)
  % Ctrl@1000 nM: 100 % Ctrl
TRKB
  % Ctrl@1000 nM: 4 % Ctrl
SRPK3
  % Ctrl@1000 nM: 100 % Ctrl
PLK4
  % Ctrl@1000 nM: 7.4 % Ctrl
PIM1
  % Ctrl@1000 nM: 96 % Ctrl
SRC
  % Ctrl@1000 nM: 3.2 % Ctrl
ACVR1B
  % Ctrl@1000 nM: 100 % Ctrl
BRSK1
  % Ctrl@1000 nM: 100 % Ctrl
EGFR(L858R,T790M)
  % Ctrl@1000 nM: 100 % Ctrl
CIT
  % Ctrl@1000 nM: 100 % Ctrl
TGFBR1
  % Ctrl@1000 nM: 100 % Ctrl
CAMK2G
  % Ctrl@1000 nM: 100 % Ctrl
TRKC
  % Ctrl@1000 nM: 2.2 % Ctrl
AKT2
  % Ctrl@1000 nM: 100 % Ctrl
CHEK1
  % Ctrl@1000 nM: 100 % Ctrl
KIT(L576P)
  % Ctrl@1000 nM: 0 % Ctrl
STK16
  % Ctrl@1000 nM: 77 % Ctrl
